How the values were obtained:
[1] = Aqueous solubility of escitalopram base; format: physicochemical; details: crystalline and/or oil forms
[2] = Solubility of escitalopram base in organic solvents; format: physicochemical

For `CN(C)CCC[C@@]1(c2ccc(F)cc2)OCc2cc(C#N)ccc21` [escitalopram base, S-1-[3-(dimethylamino)propyl]-1-(4-fluorophenyl)-1,3-dihydro-5-isobenzofurancarbonitrile], the aqueous solubility [1] was “low aqueous solubility”, the “solubility in organic solvents” value ([2]; crystalline or oil, organic solvents such as N-Methyl-2-pyrrolidone (NMP) and Dimethyl sulfoxide (DMSO)) was “extremely high solubility” and the “escitalopram content of solutions that can be prepared in organic solvents” value ([2]; oil forms of escitalopram base, organic solvents) was “more than 70 % wt”.

Reference: patent publication US20240100012A1, “PHARMACEUTICAL DOSAGE FORM” (priority 2021, published 2024)
